Source: patent US20260183306A1, “Methods for Treating Respiratory Diseases Characterized by Mucus Hypersecretion” (The Board of Trustees of the Leland Stanford Junior …, priority 2022, published 2026)
“Also recorded” adds a separate entry of the source.

How the values were obtained:
[1] = test system: HNEC cultures treated with IL-13; assay: IL-13 induced chronic inflammation / mucous metaplasia model in ALI HNEC cultures; assay type: cell-based, human; conditions: for percentage of MCCs after IL-13 remodeling / percentage of mucin positive secretory (mucous) cells after IL-13 remodeling: IL-13 ALI+7 to 14, then DAFT (1 um) or semagacestat (125 nm) ALI+14 to 21
Experimental: Administration of IL-13 to ALI cultures induces goblet cell hyperplasia and is a useful model of chronic inflammation. ALI HNEC cultures were prepared as described in Vladar et al. ALI cultures were treated with and without administration of I1-13 on days 7−14. DAFT (1 um), semagacestat (125 nm) or vehicle control were administered on days 14-21. PFA-fixed cultures were stained for Muc5AC (red; mucin producing secretory cells), Acetylated tubulin (green; MCCs) and E-Cadherin (blue to reveal cell boundaries).
HNEC cultures from a CF patient were treated with IL-13 from ALI+7 to 14 to induce inflammation. […] IL-13 treatment increases the percentage of mucin positive secretory cells and decreases the percentage of MCCs.
To test whether GSI treatment has the ability to restore multiciliated cells in remodeled epithelia with fewer than normal multiciliated cells, healthy donor HNECs were treated with the IL-13 pro-inflammatory cytokine to model mucous metaplasia (7,24). IL-13 treatment from ALI+7 to 14d of culture led to the formation of excess mucus secretory cells, identified by MUCSAC labeling, at the expense of multiciliated cells (FIG. 38A). At ALI+14d, the cytokine was withdrawn, and cultures were treated for one week with LY450139, DAPT or DMSO control.
Primary human nasal epithelial cell (HNEC) cultures. […] Primary air-liquid interface (ALI) culture of nasal epithelial cells from passage 0 (P0) or P1 basal stem cells was carried out as previously described (24,30). Briefly, cells are removed from cytobrushes with gentle enzymatic digestion. P0 HNEC cultures are initiated by seeding freshly isolated cells onto Collagen I coated Transwell filters. P1 HNEC cultures are initiated from basal cells that were first expanded on Collagen I coated plastic dishes in proliferation medium supplemented with Y-27632 (ROCK inhibitor, 10 μM), DMH-1 (BMP inhibitor, 1 μM), A-83-01, (TGF-β inhibitor, 1 μM), and CHIR99021 (WNT agonist, 1 μM)(42), all from Selleckchem. HNECs seeded onto Transwells are initially cultured submerged in proliferation medium until confluency, then lifted to ALI (considered as ALI+0d of culture) by supplying differentiation medium only from the bottom compartment. HNECs are considered mature at ALI+21d of culture. Healthy and CF HNECs used in the study were cultured in homemade media (24). CF HNECs used for the Ussing chamber measurements only were cultured in Pneumacult Ex+(proliferation) and Pneumacult ALI (differentiation) media (Stemcell). […] Healthy HNECs were treated with 10 ng/ml recombinant human IL-13 (RnD Systems).

[2] = test system: primary human nasal epithelial cells (HNECs); assay: Multiciliated cell (MCC) formation in HNEC air-liquid interface (ALI) cultures; assay type: cell-based; conditions: for multiciliated cell formation by apical versus basal application: ALI+0 to +21d from either the apical or basal surface; for multiciliated cell numbers, treatment during differentiation: differentiation only (ALI+0 to +21d) and continuous (preALI+ALI) treatments; for toxicity / disruption of epithelial structure at high concentration: micromolar doses (10 μM for LY450139); for multiciliated cell formation at the low concentration: low dose (based on IC50 for Notch inhibition); for multiciliated cell formation at the low concentration / multiciliated cell formation, treatment during proliferation only: labeled ALI+21d; for multiciliated cell formation in mature cultures: mature (ALI+30d) cultures treated one (ALI+30 to +37d) or two weeks (ALI+30 to +44d); for multiciliated cell formation, treatment during proliferation only: pre-ALI only (ALI-5 to -1d)
Experimental: Air-Liquid Interface (ALI) cultures were prepared as described in Vladar E K, Nayak J V, Milla C E, Axelrod J D. Airway epithelial homeostasis and planar cell polarity signaling depend on multiciliated cell differentiation. JCI Insight. 2016; 1(13); e88027. Human nasal epithelial cells (HNECs) were generated from human sinonasal epithelial brushings or from tissue obtained from patients undergoing endoscopic sinus surgery at Stanford Hospital and cultured as described in Vladar et al.
Cultures were treated with varying doses of semagacestat. DAFT (Abcam) was used ([…]) as a positive cone ml for GSI activity. Cultures were labeled at ALI+21 d with anti-acetylated α-tubulin (green) and ECAD (red) antibodies to mark cilia and epithelial junctions. […] The ratio was defined as MCC number/total luminal cells. Counting was done on one representative image from 5 culture replicates from a single donor.
Primary human airway epithelial cells were treated with DAPT and LY45139: i) during proliferation only (ALI-5 to -Id), ii) during differentiation only (ALI+0 to +21d) or iii) continuously during the entire culture duration, followed by labeling at ALI+21d with anti-acetylated α-Tubulin (green) and ECAD (red) antibodies.
Mature (ALI+30d) primary human airway epithelial cells were treated with DAFT and semagacestat for one (ALI+30 to +37d) or two weeks (ALI+30 to +44d), then labeled with anti-acetylated α-Tubulin (green) and ECAD (red) antibodies.
Primary human airway epithelial cells were treated with DAFT and LY45139 during differentiation only (ALI+0 to +21d) from either the apical or basal surface, then labeled at ALI+21d with anti-acetylated α-Tubulin (green) and ECAD (red) antibodies. […] Apical treatment eliminates the air-liquid interface, which results in the poor epithelial structure and multiciliated cell differentiation in the untreated cultures, which is partially rescued by GSI treatment.
While this effect may be beneficial as a therapeutic, DAPT is not suitable for human use. It was sought to identify GSIs for potential therapeutic application among small molecules previously used in clinical trials that were developed to have acceptable drug-like properties. […] Healthy human nasal epithelial cell (HNEC) primary cultures were grown at air-liquid interface (ALI) in homemade culture medium to support the consistent differentiation of multiciliated cells as approximately 45-55% of the luminal cells, similar to the in vivo airways (24) (FIG. 35A, 40A). The use of homemade culture medium is important, as cultures grown in commercially available Pneumacult medium often contain 85-95% multiciliated cells at the luminal surface (FIG. S4A). HNECs were treated with a low and high dose (based on IC50 for Notch inhibition, Selleckchem) of each compound during the entire 21 days of ALI differentiation (ALI+0 to 21d). The fraction of mature multiciliated cells was quantitated using wholemount ac. α-Tubulin antibody (marks ciliary axonemes) labeling. […] DMSO control treatment had no effect on multiciliated cell number (FIG. 40A).
HNEC primary culture comprises an initial proliferative phase when basal stem cells establish the epithelial layer under submerged culture conditions (preALI), followed by differentiation induced, in part, by lifting to ALI (30). Thus, HNECs can be used to test GSI response in both regenerative and homeostatic settings. Notch signaling between luminal cells controls epithelial cell fate, but it is also active in basal cells and regulates their differentiation and survival (14,18,31). Thus, it was asked if the GSIs LY450139 or DAFT during the proliferative preALI phase only or during the entire culture duration (proliferative+differentiation; preALI+ALI) can induce multiciliated cell formation and if GSI treatment during stem cell proliferation has detrimental effects. PreALI, GSIs was added to both the apical and basal media, and during ALI, cultures were only treated basally. […]

[3] = ALI+0 to +21d, listed as LY45139
[4] = ALI+0 to +21d, listed as LY450139
[5] = treated during differentiation ALI+0 to +21d

CC(C)[C@H](O)C(=O)N[C@@H](C)C(=O)N[C@@H]1C(=O)N(C)CCc2ccccc21 [semagacestat, (2S)-2-hydroxy-3-methyl-N-[(1 S)-1-methyl-2-oxo-2-[[(1 S)-2,3,4,5-tetrahydro-3-methyl-2-oxo-1H-3-benzazepin-1-yl]amino]ethyl]-butamide]
percentage of MCCs after IL-13 remodeling [1]: increasing the percentage of MCCs | percentage of mucin positive secretory (mucous) cells after IL-13 remodeling [1]: decreasing the percentage of mucin positive secretory cells | percentage of MCCs after IL-13 remodeling ([1]; listed as LY450139): significantly increased their proportion of multiciliated cell numbers; also recorded: induced multiciliated cell formation to levels comparable to healthy epithelia | percentage of mucin positive secretory (mucous) cells after IL-13 remodeling ([1]; listed as LY450139): reduction in the proportion of mucous cells | percentage of MCCs in controls without IL-13 ([1]; no IL-13, DAFT (1 um) or semagacestat (125 nm) days 14-21): increase the percentage off MCCs in controls; also recorded: increase the percentage of MCCs in controls | proportion of multiciliated cells ([2]; 10 μM, ALI+0 to +21d): significant decrease | proportion of multiciliated cells ([2]; 15.625 to 500 nM, ALI+0 to +21d): significant increase | multiciliated cell formation by apical versus basal application ([2]; listed as LY45139): induces ciliated cell formation via both apical and basal application | multiciliated cell formation by apical versus basal application ([2]; listed as LY450139): just as efficacious as basal treatment; also recorded: induces multiciliated cell formation via both apical and basal application | effect on Notch signaling and differentiation towards MCCs ([2]; administered in the nanomolar range to human nasal epithelial cells): effective in blocking Notch signaling, driving differentiation towards MCCs | number of multiciliated cells, apical only treatment of submerged cultures ([2]; apical only, submerged cultures, vs untreated submerged cells): approximately double the number of multiciliated cells | multiciliated cell numbers, treatment during differentiation ([2]; listed as LY45139): increased MCC cell numbers | multiciliated cell numbers, treatment during differentiation ([2]; listed as LY450139): significant increase in the proportion of multiciliated cells; also recorded: increased multiciliated cell numbers | toxicity / disruption of epithelial structure at high concentration ([2]; ALI+0 to +21d): Toxicity is observed at micromolar doses | toxicity / disruption of epithelial structure at high concentration [2, 3]: disrupted epithelial structure | toxicity / disruption of epithelial structure at high concentration [2, 4]: disrupted the epithelial junctions; also recorded: disrupted epithelial structure | multiciliated cell formation at the low concentration [2, 3]: induced multiciliated cell formation | multiciliated cell formation at the low concentration [2, 4]: able to induce the formation of extra multiciliated cells; also recorded: induced multiciliated cell formation | dose dependence of multiciliated cell numbers ([2]; lower (nM) concentrations, ALI+0 to +21d, listed as LY450139): increases the proportion of multiciliated cells in a dose dependent manner; also recorded: dose dependent increase in multiciliated cell numbers | multiciliated cell formation in mature cultures [2]: induces the formation of additional multiciliated cells in mature cultures | multiciliated cell formation in mature cultures ([2]; listed as LY450139): robust induction of multiciliated cell formation; also recorded: able to drive multiciliated cell formation in differentiating as well as mature, homeostatic airway epithelial cultures; also recorded: induces the formation of additional multiciliated cells in mature cultures | multiciliated cell formation, treatment during proliferation only ([2]; listed as LY45139): had no effect on differentiation | multiciliated cell formation, treatment during proliferation only ([2]; listed as LY450139): not sufficient to induce extra multiciliated cell formation; also recorded: no observable effect on subsequent differentiation; also recorded: no detrimental effect on multiciliated cells or overall epithelial structure | ratio MCC number/total luminal cells ([2]; semagacestat 500 nM to 31.25 nM, labeled at ALI+21 d, vs untreated, p<0.01 by ANOVA): significant increases | concentration at which the percentage of MCCs reaches its maximum / begins to plateau [2, 5]: around 125 nM | lowest concentration able to effectively increase the proportion of multiciliated cells [2, 5]: 31.25 nM
